Test results reported in ChEMBL document CHEMBL1201862, “PubChem BioAssay data set” (2004).
Calls of active or inactive are those of the source.

What was measured:
[1] = target: T1, Tyrosine-protein phosphatase non-receptor type 22 (Homo sapiens, UniProt Q9Y2R2); experiment: SAR LYP1 Fluorescent Assay using OMFP substrate for In Vitro dose response studies - Set 3. [Related pubchem assays (depositor defined):AID1779, AID1784, AID2140, AID2686]; type: functional
T1 sequence (Q9Y2R2 whole entry): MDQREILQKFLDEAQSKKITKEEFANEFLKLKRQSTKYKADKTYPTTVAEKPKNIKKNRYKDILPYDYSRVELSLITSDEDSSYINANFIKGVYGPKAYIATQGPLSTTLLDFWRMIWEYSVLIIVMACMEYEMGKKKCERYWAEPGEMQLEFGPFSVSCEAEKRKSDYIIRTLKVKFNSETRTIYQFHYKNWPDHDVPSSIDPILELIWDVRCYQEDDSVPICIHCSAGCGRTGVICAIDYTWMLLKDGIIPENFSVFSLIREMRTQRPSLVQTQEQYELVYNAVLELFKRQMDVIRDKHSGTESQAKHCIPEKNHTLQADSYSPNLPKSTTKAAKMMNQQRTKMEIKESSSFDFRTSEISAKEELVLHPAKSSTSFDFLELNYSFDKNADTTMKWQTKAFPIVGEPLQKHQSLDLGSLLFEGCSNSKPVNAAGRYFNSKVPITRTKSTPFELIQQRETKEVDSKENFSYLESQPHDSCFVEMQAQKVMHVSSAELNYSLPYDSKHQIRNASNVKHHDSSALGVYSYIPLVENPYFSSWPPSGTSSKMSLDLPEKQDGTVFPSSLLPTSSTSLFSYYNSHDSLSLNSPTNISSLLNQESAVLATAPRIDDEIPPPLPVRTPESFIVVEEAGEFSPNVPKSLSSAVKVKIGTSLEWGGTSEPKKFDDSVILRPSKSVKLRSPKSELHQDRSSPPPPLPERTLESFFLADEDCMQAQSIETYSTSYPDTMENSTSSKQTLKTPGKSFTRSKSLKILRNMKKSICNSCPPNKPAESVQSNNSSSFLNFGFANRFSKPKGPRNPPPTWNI

[2] = target: T1, Tyrosine-protein phosphatase non-receptor type 22; experiment: LYP1 Fluorescent Assay using OMFP substrate for In Vitro dose response studies. [Related pubchem assays (depositor defined):AID1779, AID1784, AID435024]
[3] = target: T1, Tyrosine-protein phosphatase non-receptor type 22; experiment: SAR LYP1 Fluorescent Assay using OMFP substrate for In Vitro dose response studies - Set 2. [Related pubchem assays (depositor defined):AID1779, AID1784, AID2140, AID449726, AID488869]; type: functional
[4] = target: T2, Tyrosine-protein phosphatase non-receptor type 7 (Homo sapiens, UniProt P35236); experiment: HTS HePTP Fluorescent Assay using OMFP substrate for In Vitro dose response studies. [Related pubchem assays (depositor defined):AID1059, AID1077, AID1784, AID2068, AID2085, AID435032, AID521]; type: functional
T2 sequence (P35236 whole entry): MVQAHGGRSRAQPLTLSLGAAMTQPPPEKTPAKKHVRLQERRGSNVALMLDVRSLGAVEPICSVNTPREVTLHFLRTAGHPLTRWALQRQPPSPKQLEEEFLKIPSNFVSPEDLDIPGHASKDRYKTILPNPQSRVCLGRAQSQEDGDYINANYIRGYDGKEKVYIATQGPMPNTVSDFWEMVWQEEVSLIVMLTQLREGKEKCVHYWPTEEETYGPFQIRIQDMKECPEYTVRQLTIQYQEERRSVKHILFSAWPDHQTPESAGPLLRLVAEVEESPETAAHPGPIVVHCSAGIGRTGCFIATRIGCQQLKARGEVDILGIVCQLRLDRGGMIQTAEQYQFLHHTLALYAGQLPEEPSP

[5] = target: T1, Tyrosine-protein phosphatase non-receptor type 22; experiment: PTPN22 lymphoid phosphatase activity blockers – biochemical, fluorescence intensity, uHTS (AID 1779)
[6] = target: T1, Tyrosine-protein phosphatase non-receptor type 22; type: functional
[7] = viability of PTEN-deleted HCT116 cells – cell-based, HCT116 PTEN knockout, dose response (AID 1047); type: functional;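 note: HCT116 colon tumor cells with PTEN knocked out; cells exposed to compound for 60 hours before readout; potency for loss of cell viability measured by luminescence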
[8] = Luminescent dose response cell-based high throughput screening assay for inhibitors of the Janus kinase 2 mutant JAK2V617F. [Related pubchem assays: 1446 (Primary screen.), 1521 (Confirmation assay.), 1486 (Counter screen.)]; type: functional
[9] = target: T3, Mannose-6-phosphate isomerase (Homo sapiens, UniProt P34949); experiment: MPI inhibition at elevated mannose 6-phosphate – biochemical, fluorescence intensity, high mannose 6-phosphate, primary screen (AID 1220)
T3 sequence (P34949 whole entry): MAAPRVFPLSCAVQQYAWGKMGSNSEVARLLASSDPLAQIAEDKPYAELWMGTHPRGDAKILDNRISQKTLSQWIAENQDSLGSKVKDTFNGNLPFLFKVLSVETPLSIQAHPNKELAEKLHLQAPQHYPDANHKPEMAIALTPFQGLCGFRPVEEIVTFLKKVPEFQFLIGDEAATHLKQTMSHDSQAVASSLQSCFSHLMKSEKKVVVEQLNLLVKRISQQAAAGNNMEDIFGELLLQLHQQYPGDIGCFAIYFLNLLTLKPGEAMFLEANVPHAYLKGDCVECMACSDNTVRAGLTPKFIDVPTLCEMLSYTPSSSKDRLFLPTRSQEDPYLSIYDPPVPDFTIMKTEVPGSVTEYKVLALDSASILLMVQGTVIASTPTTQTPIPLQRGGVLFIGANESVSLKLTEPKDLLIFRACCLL

[10] = target: T4, Sentrin-specific protease 8 (Homo sapiens, UniProt Q96LD8); type: functional;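 note: luminescence read-out of SENP8 inhibition, dose-response confirmation following an ultra-high-throughput screen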
T4 sequence (Q96LD8 whole entry): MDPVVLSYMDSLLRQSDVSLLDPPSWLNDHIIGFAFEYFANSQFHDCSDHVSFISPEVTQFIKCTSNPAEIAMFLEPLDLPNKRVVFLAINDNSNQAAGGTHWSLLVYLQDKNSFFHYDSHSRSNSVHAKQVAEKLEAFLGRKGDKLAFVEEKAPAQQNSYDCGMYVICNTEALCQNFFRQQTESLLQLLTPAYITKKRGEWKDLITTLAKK

[11] = Luminescence Cell-Based Dose Confirmation HTS to Identify Activators of 5'UTR Stem-Loop Driven Alpha-Synuclein mRNA Translation in H4 Neuroglioblastoma Cells. [Related pubchem assays: 1829 (Project Summary), 1814 (Primary HTS)]; type: functional
[12] = viability loss of HPDE-C7K cells – cell-based, fluorescence, HTS, primary screen (AID 431); type: functional; settings: Homo sapiens
Caspase-3 = target: T5, Caspase-3 (Homo sapiens, UniProt P42574); type: functional;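 note: Dose-response selectivity test against caspase-3 for candidate inhibitors of sentrin-specific proteases (SENPs)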
T5 sequence (P42574 whole entry): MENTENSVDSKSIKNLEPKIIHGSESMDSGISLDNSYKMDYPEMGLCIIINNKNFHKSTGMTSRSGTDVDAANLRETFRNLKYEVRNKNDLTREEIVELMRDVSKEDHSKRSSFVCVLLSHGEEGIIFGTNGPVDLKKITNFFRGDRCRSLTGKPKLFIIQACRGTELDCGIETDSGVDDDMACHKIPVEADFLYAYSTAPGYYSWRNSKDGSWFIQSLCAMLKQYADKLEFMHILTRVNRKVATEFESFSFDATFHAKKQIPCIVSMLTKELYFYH

SMILES	IC50 [1]	IC50 [2]	IC50 [3]	IC50 [4]	IC50 [5]	IC50 [6]	EC50 [7]	IC50 [8]	IC50 [9]	IC50 [10]	EC50 [11]	EC50 [12]	IC50 (Caspase-3)
COc1ccc(/C=C2\SC(=S)N(CCC(=O)Nc3ccc(C(=O)O)cc3)C2=O)cc1OC	4.09 µM (active)	4.66 µM (active)	1.08 µM (active)	5.64 µM (active)	4.29 µM (active)	3.74 µM (active)	–	–	–	–	–	–	–
COc1ccc(Nc2ccc3c(c2)=NC2(CCCCC2)[N+]=3[O-])cc1	–	–	–	–	–	–	2.49 µM (active)	0.824 µM (active)	> 50 µM (not active)	14.8 µM (active)	> 120 µM (not active)	8.16 µM (active)	88.4 µM (active)
